Laboratory results from ChEMBL document CHEMBL5113527, “First-in-Class Hydrazide-Based HDAC6 Selective Inhibitor with Potent Oral Anti-Inflammatory Activity by Attenuating NLRP3 Inflammasome Activation” (J Med Chem, 2022).
pIC50, pKi: −log10 of the molar value. The source made the active and inactive calls. No cut-off for these calls is given here.

Legend:
Histone deacetylase 1 [1] = target: T1, Histone deacetylase 1 (Homo sapiens, UniProt Q13547); assay: Inhibition of recombinant HDAC1 (unknown origin) using Boc-Lys(acetyl)-AMC as substrate preincubated for 1 hr followed by substrate addition and measured after 2 hrs by fluorescence based microplate reader analysis
T1 sequence (Q13547 whole entry): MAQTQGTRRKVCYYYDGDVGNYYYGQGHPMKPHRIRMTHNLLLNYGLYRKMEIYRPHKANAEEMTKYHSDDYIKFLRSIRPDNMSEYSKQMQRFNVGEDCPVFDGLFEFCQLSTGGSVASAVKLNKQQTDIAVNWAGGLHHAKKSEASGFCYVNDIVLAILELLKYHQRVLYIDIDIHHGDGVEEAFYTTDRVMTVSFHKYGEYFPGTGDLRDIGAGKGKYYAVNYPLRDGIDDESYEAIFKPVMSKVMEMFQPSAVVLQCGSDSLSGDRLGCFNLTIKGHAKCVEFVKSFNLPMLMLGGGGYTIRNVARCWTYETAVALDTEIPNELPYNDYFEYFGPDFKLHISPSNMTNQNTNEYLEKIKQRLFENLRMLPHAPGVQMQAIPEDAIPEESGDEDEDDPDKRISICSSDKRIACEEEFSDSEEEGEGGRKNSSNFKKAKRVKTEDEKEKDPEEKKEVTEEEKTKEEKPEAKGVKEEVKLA

Histone deacetylase 3 = Histone deacetylase 3 (Homo sapiens, UniProt O15379); assay: Inhibition of recombinant HDAC3 (unknown origin) using Boc-Lys(acetyl)-AMC as substrate preincubated for 1 hr followed by substrate addition and measured after 2 hrs by fluorescence based microplate reader analysis
Sequence of Histone deacetylase 3 (O15379 whole entry): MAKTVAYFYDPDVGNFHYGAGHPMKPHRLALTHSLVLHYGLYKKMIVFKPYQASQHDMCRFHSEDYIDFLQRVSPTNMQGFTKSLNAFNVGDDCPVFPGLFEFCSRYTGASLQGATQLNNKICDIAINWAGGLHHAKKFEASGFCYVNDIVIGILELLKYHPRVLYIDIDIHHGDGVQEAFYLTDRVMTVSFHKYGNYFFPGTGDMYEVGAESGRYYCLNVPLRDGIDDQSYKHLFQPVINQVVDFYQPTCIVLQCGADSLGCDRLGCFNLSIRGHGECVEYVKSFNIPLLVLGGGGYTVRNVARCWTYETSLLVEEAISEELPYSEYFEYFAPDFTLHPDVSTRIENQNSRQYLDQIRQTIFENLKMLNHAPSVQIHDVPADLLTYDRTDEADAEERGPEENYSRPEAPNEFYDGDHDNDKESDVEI

Histone deacetylase 4 = Histone deacetylase 4 (Homo sapiens, UniProt P56524); assay: Inhibition of recombinant HDAC4 (unknown origin) using Boc-Lys (trifluoroacetyl) AMC as substrate preincubated for 1 hr followed by substrate addition and measured after 2 hrs by fluorescence based microplate reader analysis
Sequence of Histone deacetylase 4 (P56524 whole entry): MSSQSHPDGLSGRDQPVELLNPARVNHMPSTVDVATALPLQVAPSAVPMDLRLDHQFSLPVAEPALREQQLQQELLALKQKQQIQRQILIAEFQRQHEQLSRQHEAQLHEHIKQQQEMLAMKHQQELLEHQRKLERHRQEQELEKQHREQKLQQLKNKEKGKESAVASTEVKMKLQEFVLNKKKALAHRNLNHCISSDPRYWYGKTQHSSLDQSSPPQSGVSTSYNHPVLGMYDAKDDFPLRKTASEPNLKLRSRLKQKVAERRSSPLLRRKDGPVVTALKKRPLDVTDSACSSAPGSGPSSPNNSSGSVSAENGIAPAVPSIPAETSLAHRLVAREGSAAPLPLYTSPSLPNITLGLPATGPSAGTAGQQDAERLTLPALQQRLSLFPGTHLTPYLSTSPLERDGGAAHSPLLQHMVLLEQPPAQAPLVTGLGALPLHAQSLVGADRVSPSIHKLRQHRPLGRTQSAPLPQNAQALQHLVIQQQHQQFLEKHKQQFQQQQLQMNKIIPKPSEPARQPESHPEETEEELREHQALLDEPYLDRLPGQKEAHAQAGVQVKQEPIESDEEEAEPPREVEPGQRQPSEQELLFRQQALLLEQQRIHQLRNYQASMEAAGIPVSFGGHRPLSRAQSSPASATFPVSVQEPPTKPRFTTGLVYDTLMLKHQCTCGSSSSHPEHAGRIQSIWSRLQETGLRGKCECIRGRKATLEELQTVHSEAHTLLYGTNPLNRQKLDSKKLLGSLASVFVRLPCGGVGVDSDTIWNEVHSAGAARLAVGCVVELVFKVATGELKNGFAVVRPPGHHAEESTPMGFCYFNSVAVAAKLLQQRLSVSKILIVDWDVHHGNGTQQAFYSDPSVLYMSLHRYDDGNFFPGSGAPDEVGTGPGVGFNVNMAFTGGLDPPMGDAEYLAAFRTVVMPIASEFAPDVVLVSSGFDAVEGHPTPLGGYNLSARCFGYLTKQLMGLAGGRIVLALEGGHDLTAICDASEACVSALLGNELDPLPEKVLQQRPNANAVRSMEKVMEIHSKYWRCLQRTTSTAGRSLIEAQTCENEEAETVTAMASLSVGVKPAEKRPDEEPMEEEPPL

Histone deacetylase 8 = target: T2, Histone deacetylase 8 (Homo sapiens, UniProt Q9BY41); assay: Inhibition of recombinant HDAC8 (unknown origin) using Boc-Lys (trifluoroacetyl) AMC as substrate preincubated for 1 hr followed by substrate addition and measured after 2 hrs by fluorescence based microplate reader analysis
T2 sequence (Q9BY41 whole entry): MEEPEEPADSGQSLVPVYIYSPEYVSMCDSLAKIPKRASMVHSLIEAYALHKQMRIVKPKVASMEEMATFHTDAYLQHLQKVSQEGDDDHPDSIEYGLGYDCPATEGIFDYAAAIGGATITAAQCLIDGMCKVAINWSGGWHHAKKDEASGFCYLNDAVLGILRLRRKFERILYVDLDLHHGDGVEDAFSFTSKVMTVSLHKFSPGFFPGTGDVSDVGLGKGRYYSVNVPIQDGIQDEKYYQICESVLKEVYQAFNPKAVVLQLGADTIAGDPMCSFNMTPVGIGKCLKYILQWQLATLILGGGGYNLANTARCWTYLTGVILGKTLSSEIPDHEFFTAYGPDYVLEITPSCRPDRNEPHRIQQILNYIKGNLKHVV

Histone deacetylase 1 [2] = target: T1, Histone deacetylase 1; assay: Binding affinity to recombinant HDAC1 (unknown origin) assessed as inhibition constant using Boc-Lys(acetyl)-AMC as substrate preincubated for 1 hr followed by substrate addition and measured after 2 hrs by fluorescence based microplate reader analysis
[3] = target: T3, Protein deacetylase HDAC6 (Homo sapiens, UniProt Q9UBN7); assay: Inhibition of recombinant HDAC6 (unknown origin) using Boc-Lys(acetyl)-AMC as substrate preincubated for 15 mins followed by substrate addition and measured after 2 hrs by fluorescence based microplate reader analysis
T3 sequence (Q9UBN7 whole entry): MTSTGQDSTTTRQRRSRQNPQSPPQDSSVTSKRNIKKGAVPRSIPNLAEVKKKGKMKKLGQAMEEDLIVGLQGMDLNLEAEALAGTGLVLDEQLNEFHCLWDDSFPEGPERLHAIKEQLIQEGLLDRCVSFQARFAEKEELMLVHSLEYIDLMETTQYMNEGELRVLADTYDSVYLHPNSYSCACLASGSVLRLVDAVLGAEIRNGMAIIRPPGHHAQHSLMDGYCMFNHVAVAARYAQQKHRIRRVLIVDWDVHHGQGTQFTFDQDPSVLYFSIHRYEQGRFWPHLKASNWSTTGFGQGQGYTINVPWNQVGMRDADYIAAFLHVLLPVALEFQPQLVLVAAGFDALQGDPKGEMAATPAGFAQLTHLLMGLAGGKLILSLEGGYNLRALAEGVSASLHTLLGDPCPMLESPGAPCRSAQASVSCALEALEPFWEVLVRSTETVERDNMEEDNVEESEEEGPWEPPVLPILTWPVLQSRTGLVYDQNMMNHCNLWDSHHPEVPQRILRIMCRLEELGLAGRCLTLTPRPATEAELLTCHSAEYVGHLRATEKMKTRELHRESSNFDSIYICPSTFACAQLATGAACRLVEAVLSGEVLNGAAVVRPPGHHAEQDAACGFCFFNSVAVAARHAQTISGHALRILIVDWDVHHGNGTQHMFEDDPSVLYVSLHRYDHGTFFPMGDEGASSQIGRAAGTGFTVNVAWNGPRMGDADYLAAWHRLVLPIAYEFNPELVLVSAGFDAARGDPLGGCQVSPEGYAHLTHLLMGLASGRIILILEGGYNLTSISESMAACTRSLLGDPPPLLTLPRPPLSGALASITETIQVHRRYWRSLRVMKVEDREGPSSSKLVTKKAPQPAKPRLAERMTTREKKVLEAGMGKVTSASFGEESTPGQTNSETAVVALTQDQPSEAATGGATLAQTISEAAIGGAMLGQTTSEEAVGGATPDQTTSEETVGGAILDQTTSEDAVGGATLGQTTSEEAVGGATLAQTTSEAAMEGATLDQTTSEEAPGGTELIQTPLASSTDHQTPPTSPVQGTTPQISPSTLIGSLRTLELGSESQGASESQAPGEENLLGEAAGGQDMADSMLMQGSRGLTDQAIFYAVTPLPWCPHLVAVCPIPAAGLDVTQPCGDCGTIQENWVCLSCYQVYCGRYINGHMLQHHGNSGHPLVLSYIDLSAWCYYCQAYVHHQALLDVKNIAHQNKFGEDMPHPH

[4] = Cmax in CD-1 mouse at 5 mg/kg, iv measured after 0.083 to 24 hrs by LC-MS/MS analysis; format: ADME, organism-based; design: dose 5 mg/kg, time 0.083-24 hrs, route iv; details: in vivo
[5] = Half life in CD-1 mouse at 5 mg/kg, iv measured after 0.083 to 24 hrs by LC-MS/MS analysis; format: ADME, organism-based; details: in vivo, time 0.083-24 hrs
[6] = Brain concentration in CD-1 mouse at 20 mg/kg measured after 0.5 hrs by LC-MS/MS analysis; format: ADME, organism-based; details: read-out: Ct
J774.A1 = assay: Inhibition of HDAC6/dynein interaction in mouse J774.A1 cells measured after 8 hrs by co-immunoprecipitation based Western blotting analysis; format: cell-based
HEK293 = assay: Cytotoxicity against human HEK293 cells assessed as reduction in cell viability at 100 uM measured after 48 hrs by spectrophotometric analysis; format: toxicity, cell-based; details: hek293, 48 h
L02 = assay: Cytotoxicity against human HL7702 cells assessed as reduction in cell viability at 100 uM measured after 48 hrs by spectrophotometric analysis; format: toxicity, cell-based; details: l02, 48 h
NCM460 = assay: Cytotoxicity against human NCM460 cells assessed as reduction in cell viability at 100 uM measured after 48 hrs by spectrophotometric analysis; format: toxicity, cell-based; details: ncm460, 48 h
[7] = Brain concentration in CD-1 mouse at 20 mg/kg measured after 1 hrs by LC-MS/MS analysis; format: ADME, organism-based; details: read-out: Ct
[8] = Ratio of drug concentration in brain to plasma of CD-1 mouse measured after 1 hrs by LC-MS/MS analysis; format: ADME
[9] = Plasma concentration in CD-1 mouse at 20 mg/kg measured after 2 hrs by LC-MS/MS analysis; format: ADME, organism-based
[10] = Brain concentration in CD-1 mouse at 20 mg/kg measured after 2 hrs by LC-MS/MS analysis; format: ADME, organism-based; details: read-out: Ct
[11] = Plasma concentration in CD-1 mouse at 20 mg/kg measured after 4 hrs by LC-MS/MS analysis; format: ADME, organism-based

With `CCNNC(=O)c1ccc(CN2c3ccccc3C=Cc3ccncc32)cc1` the pIC50 (Histone deacetylase 1 [1]) was 5.82, the pIC50 (Histone deacetylase 3) was 5.99 and the pIC50 (Histone deacetylase 4) was less than 5.30. The pIC50 (Histone deacetylase 8) was less than 5.30, the pKi (Histone deacetylase 1 [2]) was 6.06 and the pIC50 [3] was 6.59. The Cmax [4] was 4600 ng/mL, the half-life [5] was 477 min and the concentration at 0.5 h [6] was 11300 ng/mL. For the same compound, the inhibition (J774.A1) was “Active”, the Activity (HEK293) was “Non-Toxic” and the Activity (L02) was “Non-Toxic”. For the same compound, the Activity (NCM460) was “Non-Toxic”, the concentration at 1 h [7] was 7400 ng/mL and the Kp at 1 h [8] was 1.26. It also gave a concentration at 2 h [9] of 2320 ng/mL, a concentration at 2 h [10] of 3280 ng/mL and a concentration at 4 h [11] of 162 ng/mL.
